Test results from ChEMBL document CHEMBL1147717, “Development of activity-based probes for trypsin-family serine proteases” (Bioorg Med Chem Lett, 2006).

Columns and labels:
Prothrombin = Prothrombin (Homo sapiens, UniProt P00734); experiment: Inhibition of thrombin; conditions: read-out: Ki app
Tryptase beta-1 = Tryptase beta-1 (Homo sapiens, UniProt Q15661); experiment: Inhibition of beta tryptase; conditions: read-out: Ki app
Trypsin = Trypsin (Homo sapiens, UniProt P07477+P07478+P35030); experiment: Inhibition of trypsin; assay type: protein assay
Plasminogen = Plasminogen (Homo sapiens, UniProt P00747); experiment: Inhibition of plasmin; conditions: read-out: Ki app
Plasminogen, sequence (P00747 97-580 limits assumed): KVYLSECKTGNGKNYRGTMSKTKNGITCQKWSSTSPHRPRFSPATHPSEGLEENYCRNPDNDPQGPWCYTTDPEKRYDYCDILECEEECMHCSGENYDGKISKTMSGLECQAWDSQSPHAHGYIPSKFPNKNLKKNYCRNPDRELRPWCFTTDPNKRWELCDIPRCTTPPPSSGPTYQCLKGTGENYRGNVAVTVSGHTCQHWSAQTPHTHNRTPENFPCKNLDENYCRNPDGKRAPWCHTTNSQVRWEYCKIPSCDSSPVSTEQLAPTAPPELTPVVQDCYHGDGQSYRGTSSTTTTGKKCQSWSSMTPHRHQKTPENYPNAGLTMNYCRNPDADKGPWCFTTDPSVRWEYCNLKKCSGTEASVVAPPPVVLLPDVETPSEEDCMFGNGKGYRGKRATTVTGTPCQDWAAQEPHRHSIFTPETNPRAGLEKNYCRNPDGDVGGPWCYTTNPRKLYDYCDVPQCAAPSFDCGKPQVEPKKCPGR
Plasminogen, sequence (P00747 581-810 limits assumed): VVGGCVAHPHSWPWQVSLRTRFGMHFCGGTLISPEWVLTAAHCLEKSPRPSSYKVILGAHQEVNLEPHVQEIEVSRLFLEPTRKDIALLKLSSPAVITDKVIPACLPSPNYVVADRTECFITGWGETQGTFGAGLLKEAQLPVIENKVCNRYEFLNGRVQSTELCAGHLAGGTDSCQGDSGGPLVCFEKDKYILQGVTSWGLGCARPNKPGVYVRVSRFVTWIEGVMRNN

Tryptase beta-1, sequence (Q15661 whole entry): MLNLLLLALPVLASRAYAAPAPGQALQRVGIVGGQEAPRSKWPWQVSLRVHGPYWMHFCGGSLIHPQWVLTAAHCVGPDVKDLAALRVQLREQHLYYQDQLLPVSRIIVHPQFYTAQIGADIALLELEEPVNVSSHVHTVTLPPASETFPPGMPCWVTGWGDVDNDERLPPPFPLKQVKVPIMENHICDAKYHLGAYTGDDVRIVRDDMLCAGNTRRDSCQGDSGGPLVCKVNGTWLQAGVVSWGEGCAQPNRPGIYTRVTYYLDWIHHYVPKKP

Structure (SMILES)	Ki (Prothrombin) [nM]	Ki (Tryptase beta-1) [nM]	Ki app (Trypsin) [nM]	Ki (Plasminogen) [nM]
NCCCC[C@@H](NC(=O)[C@@H]1CCCN1C(=O)CCOCCOCCOCCOCCNC(=O)CCCC[C@@H]1SC[C@@H]2NC(=O)N[C@@H]21)P(=O)(Oc1ccccc1)Oc1ccccc1	1070	6200	570	2900
NCCCC[C@@H](NC(=O)[C@H](CC(N)=O)NC(=O)CCOCCOCCOCCOCCNC(=O)CCCC[C@@H]1SC[C@@H]2NC(=O)N[C@@H]21)P(=O)(Oc1ccccc1)Oc1ccccc1	> 100000	2500	57300	4030
